Four sequences from patent publication US20070128217A1 (priority 2003, published 2007) can be followed below.

Assay [1] relates to antibodies in sera from SARS patients (sera 1a, 1b, 2, 6, 37, 62, London, SARS-yellow, SARS-green). Type of assay: binding, human. Set-up: Binding of serum 6 to linear peptides of protein X1 of SARS-CoV Urbani / Binding of serum 37 to linear peptides of protein X1 of SARS-CoV Urbani / Binding of serum 6 to looped/cyclic peptide (PEPSCAN-ELISA) / Binding of serum 37 to looped/cyclic peptide (PEPSCAN-ELISA) / Binding of serum 37 to looped/cyclic peptides of protein X1 of SARS-CoV Urbani / Binding of serum 6 to linear peptides of protein X2 / Binding of serum 37 to linear peptides of protein X2 / Binding of serum 37 to looped/cyclic peptides of protein X2 of SARS-CoV Urbani / Binding of serum 6 to linear peptides of protein M of SARS-CoV Urbani / Binding of serum 37 to linear peptides of protein M of SARS-CoV Urbani / Binding of serum 6 to looped/cyclic peptides of protein M of SARS-CoV Urbani / Binding of serum 37 to looped/cyclic peptides of protein M of SARS-CoV Urbani / Binding of serum 6 to linear peptides of protein X3 of SARS-CoV Urbani / Binding of serum 37 to linear peptides of protein X3 of SARS-CoV Urbani / Binding of serum 37 to looped/cyclic peptides of protein X3 of SARS-CoV Urbani / Binding of serum 6 to linear peptides of protein X4 of SARS-CoV Urbani / Binding of serum 37 to linear peptides of protein X4 of SARS-CoV Urbani / Binding of serum 37 to looped/cyclic peptides of protein X4 of SARS-CoV Urbani / Binding of serum 6 to linear peptides of protein X5 of SARS-CoV Urbani / Binding of serum 37 to linear peptides of protein X5 of SARS-CoV Urbani / Binding of serum 37 to looped/cyclic peptides of protein X5 of SARS-CoV Urbani / Binding of serum 6 to linear peptides of protein N of SARS-CoV Urbani / Binding of serum 37 to linear peptides of protein N of SARS-CoV Urbani / Binding of serum 6 to linear peptide (PEPSCAN-ELISA) / Binding of serum 1a to looped/cyclic peptides of protein N of SARS-CoV Urbani / Binding of serum 1b to looped/cyclic peptides of protein N of SARS-CoV Urbani / Binding of serum 2 to looped/cyclic peptides of protein N of SARS-CoV Urbani / Binding of serum 6 to looped/cyclic peptides of protein N of SARS-CoV Urbani / Binding of serum 37 to looped/cyclic peptides of protein N of SARS-CoV Urbani / Binding of serum 62 to looped/cyclic peptides of protein N of SARS-CoV Urbani / Binding of serum London to looped/cyclic peptides of protein N of SARS-CoV Urbani / Binding of serum SARS-green to looped/cyclic peptides of protein N of SARS-CoV Urbani: unit not given here.

The test system of assay [2] is control sera (pooled serum of ten healthy LUMC hospital workers; commercial negative donor pooled serum from the Dutch bloodbank). In kind it is binding, human.
In assay [3] the test system is rabbit serum obtained by immunizing a rabbit with the SARS-CoV strain Frankfurt 1. In kind it is binding. Further details: Binding of a rabbit serum to linear peptides / Binding of a rabbit serum to looped peptides / Rabbit serum linear peptides / Rabbit serum looped peptides / Binding of a rabbit serum to linear peptides of protein N of SARS-CoV Urbani (Rabbit serum linear peptides) / Binding of a rabbit serum to looped/cyclic peptides of protein N of SARS-CoV Urbani (Rabbit serum looped peptides): unit not given here.

IAEILIIIMRTFRIA: in assay [1], the “Binding of serum 1a to linear peptides of protein X3 of SARS-CoV Urbani” value is 0.8, the “Binding of serum 1a to looped/cyclic peptides of protein X3 of SARS-CoV Urbani” value came to 0.7, the “Binding of serum 1b to linear peptides of protein X3 of SARS-CoV Urbani” value was found to be 0.5 and the “Binding of serum 1b to looped/cyclic peptides of protein X3 of SARS-CoV Urbani” value is reported as 0.3. In assay [1], the “Binding of serum 2 to linear peptides of protein X3 of SARS-CoV Urbani” value is 0.6, the “Binding of serum 2 to looped/cyclic peptides of protein X3 of SARS-CoV Urbani” value is recorded as 0.5, the “Binding of serum 6 to linear peptides of protein X3 of SARS-CoV Urbani” value stood at 0.0 and the “Binding of serum 6 to looped/cyclic peptides of protein X3 of SARS-CoV Urbani” value amounted to 0.7. In addition, in assay [1], the “Binding of serum 37 to linear peptides of protein X3 of SARS-CoV Urbani” value is reported as 0.6, the “Binding of serum 37 to looped/cyclic peptides of protein X3 of SARS-CoV Urbani” value was 0.4, the “Binding of serum 62 to linear peptides of protein X3 of SARS-CoV Urbani” value is given as 0.7 and the “Binding of serum 62 to looped/cyclic peptides of protein X3 of SARS-CoV Urbani” value is given as 0.4. Further, in assay [1], the “Binding of serum London to linear peptides of protein X3 of SARS-CoV Urbani” value is on record as 0.7, the “Binding of serum London to looped/cyclic peptides of protein X3 of SARS-CoV Urbani” value is recorded as 0.8, the “Binding of serum SARS-green to linear peptides of protein X3 of SARS-CoV Urbani” value came to 0.3 and the “Binding of serum SARS-green to looped/cyclic peptides of protein X3 of SARS-CoV Urbani” value is 0.2. In assay [1], the “Binding of serum SARS-yellow to linear peptides of protein X3 of SARS-CoV Urbani” value turned out to be 0.3 and the “Binding of serum SARS-yellow to looped/cyclic peptides of protein X3 of SARS-CoV Urbani” value is recorded as 0.6. Besides, in assay [2], the “Binding of Control Serum Blood-Bank to Looped peptides of the protein X3 of SARS-CoV Urbani” value was 0.8, the “Binding of Control serum Blood-bank to linear peptides of the protein X3 of SARS-CoV Urbani” value is 0.9, the “Binding of Control serum LUMC to linear peptides of the protein X3 of SARS-CoV Urbani” value worked out at 0.5 and the “Binding of Control serum LUMC to looped peptides of the protein X3 of SARS-CoV Urbani” value is given as 0.9. Moreover, in assay [3], the “Rabbit serum linear peptides” value came out at 0.3 and the “Rabbit serum looped peptides” value turned out to be 0.2.
Turning to RLCAYCCNIVNVSLV, in assay [1], the “Binding of serum 1a to linear peptides of protein E of SARS-CoV Urbani” value turned out to be 0.6, the “Binding of serum 1a to looped/cyclic peptides of protein E of SARS-CoV Urbani” value is listed as 0.7, the “Binding of serum 1b to linear peptides of protein E of SARS-CoV Urbani” value came to 0.5 and the “Binding of serum 1b to looped/cyclic peptides of protein E of SARS-CoV Urbani” value turned out to be 0.7. Besides, in assay [1], the “Binding of serum 2 to linear peptides of protein E of SARS-CoV Urbani” value is recorded as 0.6, the “Binding of serum 2 to looped/cyclic peptides of protein E of SARS-CoV Urbani” value is given as 0.7, the “Binding of serum 6 to linear peptides of protein E of SARS-CoV Urbani” value came to 0.4 and the “Binding of serum 6 to looped/cyclic peptides of protein E of SARS-CoV Urbani” value turned out to be 0.7. In addition, in assay [1], the “Binding of serum 37 to linear peptides of protein E of SARS-CoV Urbani” value is 0.5, the “Binding of serum 37 to looped/cyclic peptides of protein E of SARS-CoV Urbani” value turned out to be 0.6, the “Binding of serum 62 to linear peptides of protein E of SARS-CoV Urbani” value stood at 0.4 and the “Binding of serum 62 to looped/cyclic peptides of protein E of SARS-CoV Urbani” value was found to be 0.8. Further, in assay [1], the “Binding of serum London to linear peptides of protein E of SARS-CoV Urbani” value amounted to 0.5, the “Binding of serum London to looped/cyclic peptides of protein E of SARS-CoV Urbani” value was 0.5, the “Binding of serum SARS-green to linear peptides of protein E of SARS-CoV Urbani” value was 0.5 and the “Binding of serum SARS-green to looped/cyclic peptides of protein E of SARS-CoV Urbani” value was found to be 0.8. Also, in assay [1], the “Binding of serum SARS-yellow to linear peptides of protein E of SARS-CoV Urbani” value was determined as 0.2 and the “Binding of serum SARS-yellow to looped/cyclic peptides of protein E of SARS-CoV Urbani” value was found to be 0.6. Also, in assay [2], the “Binding of Control Serum Blood-Bank to Looped peptides” value turned out to be 0.7, the “Binding of Control serum Blood-bank to linear peptides” value worked out at 0.8, the “Binding of Control serum LUMC to linear peptides” value is listed as 0.6 and the “Binding of Control serum LUMC to looped peptides” value was determined as 0.8. In assay [3], the “Binding of a rabbit serum to linear peptides” value is recorded as 0.4 and the “Binding of a rabbit serum to looped peptides” value is listed as 0.2.
As to ETGTLIVNSVLLFLA, in assay [1], the “Binding of serum 1a to linear peptides of protein E of SARS-CoV Urbani” value amounted to 0.8, the “Binding of serum 1a to looped/cyclic peptides of protein E of SARS-CoV Urbani” value was found to be 0.5, the “Binding of serum 1b to linear peptides of protein E of SARS-CoV Urbani” value is on record as 0.7 and the “Binding of serum 1b to looped/cyclic peptides of protein E of SARS-CoV Urbani” value was determined as 0.4. In assay [1], the “Binding of serum 2 to linear peptides of protein E of SARS-CoV Urbani” value is recorded as 0.8, the “Binding of serum 2 to looped/cyclic peptides of protein E of SARS-CoV Urbani” value was determined as 0.5, the “Binding of serum 6 to linear peptides of protein E of SARS-CoV Urbani” value was determined as 0.5 and the “Binding of serum 6 to looped/cyclic peptides of protein E of SARS-CoV Urbani” value is reported as 0.4. Moreover, in assay [1], the “Binding of serum 37 to linear peptides of protein E of SARS-CoV Urbani” value is on record as 0.4, the “Binding of serum 37 to looped/cyclic peptides of protein E of SARS-CoV Urbani” value turned out to be 0.5, the “Binding of serum 62 to linear peptides of protein E of SARS-CoV Urbani” value was 0.4 and the “Binding of serum 62 to looped/cyclic peptides of protein E of SARS-CoV Urbani” value was 0.7. In assay [1], the “Binding of serum London to linear peptides of protein E of SARS-CoV Urbani” value was 0.8, the “Binding of serum London to looped/cyclic peptides of protein E of SARS-CoV Urbani” value worked out at 0.4, the “Binding of serum SARS-green to linear peptides of protein E of SARS-CoV Urbani” value is reported as 0.6 and the “Binding of serum SARS-green to looped/cyclic peptides of protein E of SARS-CoV Urbani” value is 0.3. Also, in assay [1], the “Binding of serum SARS-yellow to linear peptides of protein E of SARS-CoV Urbani” value was determined as 0.4 and the “Binding of serum SARS-yellow to looped/cyclic peptides of protein E of SARS-CoV Urbani” value is listed as 0.5. Further, in assay [2], the “Binding of Control Serum Blood-Bank to Looped peptides” value is given as 0.5, the “Binding of Control serum Blood-bank to linear peptides” value is reported as 0.5, the “Binding of Control serum LUMC to linear peptides” value is reported as 0.8 and the “Binding of Control serum LUMC to looped peptides” value is given as 0.5. In assay [3], the “Binding of a rabbit serum to linear peptides” value came out at 0.3 and the “Binding of a rabbit serum to looped peptides” value was determined as 0.0.
In the case of NSVLLFLAFVVFLLV, in assay [1], the “Binding of serum 1a to linear peptides of protein E of SARS-CoV Urbani” value came to 0.8, the “Binding of serum 1a to looped/cyclic peptides of protein E of SARS-CoV Urbani” value worked out at 0.6, the “Binding of serum 1b to linear peptides of protein E of SARS-CoV Urbani” value was determined as 0.6 and the “Binding of serum 1b to looped/cyclic peptides of protein E of SARS-CoV Urbani” value was 0.5. Further, in assay [1], the “Binding of serum 2 to linear peptides of protein E of SARS-CoV Urbani” value is given as 0.6, the “Binding of serum 2 to looped/cyclic peptides of protein E of SARS-CoV Urbani” value amounted to 0.6, the “Binding of serum 6 to linear peptides of protein E of SARS-CoV Urbani” value is 0.9 and the “Binding of serum 6 to looped/cyclic peptides of protein E of SARS-CoV Urbani” value turned out to be 0.4. Further, in assay [1], the “Binding of serum 37 to linear peptides of protein E of SARS-CoV Urbani” value is 0.7, the “Binding of serum 37 to looped/cyclic peptides of protein E of SARS-CoV Urbani” value came out at 0.7, the “Binding of serum 62 to linear peptides of protein E of SARS-CoV Urbani” value is reported as 0.7 and the “Binding of serum 62 to looped/cyclic peptides of protein E of SARS-CoV Urbani” value turned out to be 0.7. In addition, in assay [1], the “Binding of serum London to linear peptides of protein E of SARS-CoV Urbani” value is 0.6, the “Binding of serum London to looped/cyclic peptides of protein E of SARS-CoV Urbani” value is recorded as 0.3, the “Binding of serum SARS-green to linear peptides of protein E of SARS-CoV Urbani” value was 0.3 and the “Binding of serum SARS-green to looped/cyclic peptides of protein E of SARS-CoV Urbani” value is listed as 0.4. For the same sequence, in assay [1], the “Binding of serum SARS-yellow to linear peptides of protein E of SARS-CoV Urbani” value is reported as 0.2 and the “Binding of serum SARS-yellow to looped/cyclic peptides of protein E of SARS-CoV Urbani” value came out at 0.7. Further, in assay [2], the “Binding of Control Serum Blood-Bank to Looped peptides” value is listed as 0.6, the “Binding of Control serum Blood-bank to linear peptides” value is recorded as 0.7, the “Binding of Control serum LUMC to linear peptides” value was 0.7 and the “Binding of Control serum LUMC to looped peptides” value worked out at 0.8. Moreover, in assay [3], the “Binding of a rabbit serum to linear peptides” value is on record as 0.6 and the “Binding of a rabbit serum to looped peptides” value is recorded as 0.6.
